According to patent publication US6432988B1, “2-arylalkylthio -imidazoles, 2-arylalkenyl -thio -imidazoles and 2-arylalkinyl -thio -imidazoles as anti -inflammatory substances and substances inhibiting the release of cytokine” (Merckle GmbH, priority 1998, dated 2002):

Legend:
[1] = target: T1, 5-lipoxygenase (5-LO) (Homo sapiens, UniProt P09917); assay: Inhibition of 5-lipoxygenase: LTB4 formation in human granulocytes stimulated with calcium ionophore A 23187, ELISA; type: cell-based; conditions: A 23187, LTB4 ELISA
T1 construct: The source used for the 5-lipoxygenase is human granulocytes; endogenous in cells; host or cells: human granulocytes isolated from heparinised blood
T1 sequence (P09917 1-674): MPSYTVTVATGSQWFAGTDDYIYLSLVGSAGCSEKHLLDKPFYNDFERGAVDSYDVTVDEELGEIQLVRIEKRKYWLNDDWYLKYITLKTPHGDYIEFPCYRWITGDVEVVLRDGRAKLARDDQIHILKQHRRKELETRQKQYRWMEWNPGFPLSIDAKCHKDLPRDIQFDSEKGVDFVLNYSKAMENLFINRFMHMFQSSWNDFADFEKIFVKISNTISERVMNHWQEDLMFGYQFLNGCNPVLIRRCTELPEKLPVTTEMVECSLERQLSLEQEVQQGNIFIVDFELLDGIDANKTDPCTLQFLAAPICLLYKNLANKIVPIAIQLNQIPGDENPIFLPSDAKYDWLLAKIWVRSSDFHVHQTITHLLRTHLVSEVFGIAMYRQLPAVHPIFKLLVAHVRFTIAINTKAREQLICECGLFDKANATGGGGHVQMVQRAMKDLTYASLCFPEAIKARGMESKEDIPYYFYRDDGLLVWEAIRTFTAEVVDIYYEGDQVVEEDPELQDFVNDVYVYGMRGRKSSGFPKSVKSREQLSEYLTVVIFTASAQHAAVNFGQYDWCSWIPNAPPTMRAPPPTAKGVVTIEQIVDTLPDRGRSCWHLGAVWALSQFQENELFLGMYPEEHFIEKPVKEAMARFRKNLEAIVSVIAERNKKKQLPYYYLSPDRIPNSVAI
Procedure: Test System for Determining the Inhibition of 5-lipoxygenase (5-LO)
The source used for the 5-lipoxygenase is human granulocytes. By stimulation with calcium ionophore A 23187, LTB4 (leukotriene B4) is formed from endogenous arachidonic acid. The granulocytes are isolated and the enzyme reaction is carried out according to known processes (see Arch. Pharm. Pharm. Med. Chem. 330, 307-312 (1997)).
The blood protected from clotting by heparin is centrifuged on a discontinuous Percoll® gradient and the granulocyte layer is removed by pipette. After lysis of the erythrocytes, the granulocytes are washed a number of times and then adjusted to a specific cell count. The enzyme reaction is then started in the presence or absence of the test substance after addition of Ca^2+ using calcium ionophore A 23187. The synthesis of the leukotrienes is stopped after 1.5 minutes. The samples are centrifuged off and the supernatant is diluted. LTB4 is determined quantitatively by means of ELISA.

[2] = system: TNF-α; assay: Inhibition of LPS-stimulated cytokine secretion in human PBMC (TNF-α); type: cell-based; conditions: LPS 1 μg/ml, 24 h, read-out: TNFα, PBMC (IC50 values)
Procedure: (§1) Test System for Determining the Inhibition of LPS-stimulated Cytokine Secretion (TNF-α, IL-1β)
(§2) Human PBMC (peripheral blood mononuclear cells) are preincubated with test substance for 5 min at 37° C., then stimulated with LPS (1 μg/ml) for 24 h at 37° C. The cytokines TNF-α, IL-1β, IL-6 and IL-8 are Determined by means of ELISA (see Blood 75, 40-47 (1990)).

[3] = target: T2, Cyclooxygenase-1 (COX-1) (Homo sapiens, UniProt P23219); assay: Inhibition of cyclooxygenase-1: prostaglandin E2 formed by human platelets after calcium ionophore, ELISA; type: cell-based; conditions: PGE2 ELISA
T2 construct: endogenous in cells; host or cells: human platelets
Procedure: Test System for Determining the Inhibition of Cyclooxygenase-1 (COX-1)
In this test system, the amount of prostaglandin E2 formed by human platelets after addition of calcium ionophore is determined by means of ELISA. The platelets are obtained here after centrifugation on a discontinuous Percoll® gradient. The enzyme reaction and the determination of the metabolites formed are in principle carried out as in the determination of the inhibition of 5-lipoxygenase. Differences exist with respect to the incubation time. Furthermore, the addition of a thromboxane synthase inhibitor is necessary (see Arch. Pharm. Pharm. Med. Chem. 330, 307-312 (1997)).

[4] = system: TNF-α; assay: Inhibition of LPS-stimulated cytokine secretion in whole blood (TNF-α); type: cell-based; conditions: human whole blood, LPS 1 μg/ml, 4 h; read-out: TNFα, Whole blood method (IC50 values)
Procedure: (§3) Test System for Determining the Inhibition of LPS-stimulated Cytokine Secretion (TNF-α, IL-1β) in Whole Blood
(§4) Fresh, human whole blood from healthy donors is preincubated with test substance for 25 min at 37° C. The cells are stimulated with LPS (1 μg/ml) for 4 h at 37° C. In the plasma supernatant which is isolated by centrifugation, the cytokines TNF-α, IL-1β, IL-6 and IL-8 are quantified by means of ELISA (see Inflamm. Res. 44, 269-274 (1995)).

[5] = system: IL-1β; assay: Inhibition of LPS-stimulated cytokine secretion in human PBMC (IL-1β); type: cell-based; conditions: LPS 1 μg/ml, 24 h
Procedure: as §1, §2

[6] = target: T3, Cyclooxygenase-2 (COX-2) (Ovis aries, UniProt P79208); assay: Inhibition of cyclooxygenase-2: COX-2 from sheep placenta, arachidonic acid, PGE2 by ELISA; type: biochemical; conditions: arachidonic acid 5 μm
T3 construct: COX-2 (from sheep placenta) is preincubated with test substance for 10 min at 4° C; from tissue; host or cells: sheep placenta
T3 sequence (P79208 17-603): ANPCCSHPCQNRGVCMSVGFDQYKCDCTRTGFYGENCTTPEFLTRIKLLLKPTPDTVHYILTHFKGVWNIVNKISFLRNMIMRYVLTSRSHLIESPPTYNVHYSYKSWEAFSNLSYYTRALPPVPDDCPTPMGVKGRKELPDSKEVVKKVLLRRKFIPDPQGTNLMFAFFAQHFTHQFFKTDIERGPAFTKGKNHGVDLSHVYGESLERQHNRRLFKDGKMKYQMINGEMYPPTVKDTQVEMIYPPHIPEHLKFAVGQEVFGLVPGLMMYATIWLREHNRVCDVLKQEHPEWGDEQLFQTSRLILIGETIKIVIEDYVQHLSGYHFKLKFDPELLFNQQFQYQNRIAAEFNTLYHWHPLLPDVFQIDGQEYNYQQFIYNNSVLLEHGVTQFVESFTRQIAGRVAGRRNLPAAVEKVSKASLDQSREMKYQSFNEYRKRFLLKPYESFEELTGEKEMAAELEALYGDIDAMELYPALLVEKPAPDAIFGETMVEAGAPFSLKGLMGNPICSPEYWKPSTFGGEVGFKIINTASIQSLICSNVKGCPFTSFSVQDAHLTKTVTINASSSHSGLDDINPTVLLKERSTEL
Procedure: Test System for Determining the Inhibition of Cyclooxygenase-2 (COX-2)
COX-2 (from sheep placenta) is preincubated with test substance for 10 min at 4° C., then stimulated with arachidonic acid (5 μm) at 25° C. for 10 min. […] Determination is carried out 3 dilutions (10^−7, 10^−6, 10^−5 molar). The PGE2 concentrations are quantified by means of ELISA (see Mitchell J. A. et al. Proc. Nat. Acad. Sci 90: 11693-11697 (1993)).

[7] = system: IL-1β; assay: Inhibition of LPS-stimulated cytokine secretion in whole blood (IL-1β); type: cell-based; conditions: human whole blood, LPS 1 μg/ml, 4 h; read-out: IL-1β, Whole blood method (IC50 values)
Procedure: as §3, §4

T2 sequence (P23219 24-599): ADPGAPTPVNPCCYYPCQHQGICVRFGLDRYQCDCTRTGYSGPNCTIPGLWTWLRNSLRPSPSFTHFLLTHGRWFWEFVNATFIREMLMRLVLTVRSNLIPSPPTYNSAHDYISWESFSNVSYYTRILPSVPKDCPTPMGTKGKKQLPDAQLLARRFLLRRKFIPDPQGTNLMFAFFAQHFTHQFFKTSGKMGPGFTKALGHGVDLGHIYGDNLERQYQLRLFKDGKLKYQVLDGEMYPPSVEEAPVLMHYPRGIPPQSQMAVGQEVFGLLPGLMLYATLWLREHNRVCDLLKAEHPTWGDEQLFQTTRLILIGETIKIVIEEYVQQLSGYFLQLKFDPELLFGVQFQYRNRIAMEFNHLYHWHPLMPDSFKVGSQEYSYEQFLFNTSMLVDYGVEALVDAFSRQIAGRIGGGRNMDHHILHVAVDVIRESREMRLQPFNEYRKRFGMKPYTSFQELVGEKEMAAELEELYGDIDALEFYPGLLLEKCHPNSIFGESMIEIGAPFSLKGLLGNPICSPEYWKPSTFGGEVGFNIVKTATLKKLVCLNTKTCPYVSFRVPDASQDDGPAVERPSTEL

SMILES	IC50 [1] [µM]	IC50 [2] [µM]	IC50 [3] [µM]	IC50 [4] [µM]	IC50 [5] [µM]	IC50 [6] [µM]	IC50 [7] [µM]
CSc1ccc(CSc2nc(-c3ccncc3)c(-c3ccc(F)cc3)[nH]2)cc1 [Example 1, 5-(4-Fluorophenyl)-2-[(4-methylthio)benzylthio]-4-(4-pyridyl)imidazole]	0.065	10	3.4	30	> 100	6.1	30
CS(=O)(=O)c1ccc(CSc2nc(-c3ccncc3)c(-c3ccc(F)cc3)[nH]2)cc1 [Example 3, 5-(4-Fluorophenyl)-2-[(4-methylsulfonyl)benzylthio]-4-(4-pyridyl)imidazole]	0.8	4	–	19	> 100	–	1.2
CSc1ccc(CCSc2nc(-c3ccncc3)c(-c3ccc(F)cc3)[nH]2)cc1 [Example 6, 2-[2-(4-Methylthiophenyl)ethylthio]-5-(4-fluorophenyl)4-(4-pyridyl)imidazole]	< 0.01	6	6.5	–	58	3	–
CS(=O)(=O)c1ccc(CCSc2nc(-c3ccncc3)c(-c3ccc(F)cc3)[nH]2)cc1 [Example 7, 5-(4-Fluorophenyl)-2-[2-(4-methylsulfonylphenyl)ethylthio]-4-(4-pyridyl)imidazole]	–	14	–	–	21	–	–
C[S+]([O-])c1cccc(CSc2nc(-c3ccncc3)c(-c3ccc(F)cc3)[nH]2)c1 (stereo not shown) [Example 9, 5-(4-Fluorophenyl)-2-[(3-methylsulfinylphenyl)methylthio]-4-(4-pyridyl)-1H-imidazole]	–	–	–	24	–	–	1.9
C[S+]([O-])c1ccccc1CSc1nc(-c2ccncc2)c(-c2ccc(F)cc2)[nH]1 (stereo not shown) [Example 10, 5-(4-Fluorophenyl)-2-[(2-methylsulfinylphenyl)methylthio]-4-(4-pyridyl)-1H-imidazole]	–	–	–	48	–	–	4
C[S+]([O-])c1cc(CSc2nc(-c3ccncc3)c(-c3ccc(F)cc3)[nH]2)ccc1O (stereo not shown) [Example 12, 5-(4-Fluorophenyl)-2-[(4-hydroxy-3-methylsulfinylphenyl)methylthio]-4-(4-pyridyl)-1H-imidazole]	–	–	–	9	–	–	12.1

Now from value to molecule:

IC50 [1] [µM]	IC50 [2] [µM]	IC50 [3] [µM]	IC50 [4] [µM]	IC50 [5] [µM]	IC50 [6] [µM]	IC50 [7] [µM]	SMILES
10	6.8	–	16	2.3	6.3	2.9	C[S+]([O-])c1ccc(CSc2nc(-c3ccncc3)c(-c3ccc(F)cc3)[nH]2)cc1 (stereo not shown) [Example 2, 5-(4-Fluorophenyl)-2-[(4-methylsulfinyl)benzylthio]-4-(4-pyridyl)imidazole]
0.085	3.3	2.2	–	9.3	7	–	NS(=O)(=O)c1ccc(CCSc2nc(-c3ccncc3)c(-c3ccc(F)cc3)[nH]2)cc1 [Example 4, 2-[2-(4-Aminosulfonylphenyl)ethylthio]-5-(4-fluorophenyl)-4-(4-pyridyl)imidazole]
2.8	3.1	0.038	–	18	10	–	NS(=O)(=O)c1ccc(CSc2nc(-c3ccncc3)c(-c3ccc(F)cc3)[nH]2)cc1 [Example 5, 2-[(4-Aminosulfonylphenyl)methylthio]-5-(4-fluorophenyl)-4-(4-pyridyl)imidazole]
–	4.2	–	76	0.64	–	13	C[S+]([O-])c1ccc(O)c(CSc2nc(-c3ccncc3)c(-c3ccc(F)cc3)[nH]2)c1 (stereo not shown) [Example 16, 2-[(2-Hydroxy-5-methylsulfinylphenyl)methylthio]-5-(4-fluorophenyl)-4-(4-pyridyl)-1H-imidazole]
–	–	–	–	7.5	–	–	CS(=O)(=O)c1ccc(-c2nc(-c3ccc(F)cc3)c(-c3ccncc3)[nH]2)cc1 [Reference B, reference compound]
